According to patent US11467158B2, “BRCA1 mutations as predictive markers for topoisomerase inhibitions” (BOSTON MEDICAL CENTER CORPORATION, priority 2012, dated 2022):
“Also recorded” adds a separate entry of the source. Non-standard residues stand in square brackets, D forms with d. No end group written: not given here. pS = N[C@@H](COP(=O)(O)O)C(=O)O

Assays:
leukemia L-1210 = details: experimentally transplanted leukemia L-1210 in mice; cited from earlier work
topo I [1] = assay: topo I degradation in cells (immunoblot with anti-topo I); assay type: cell-based
Procedure: (§1) Phosphorylated GST-topo I was incubated with purified E1, UbcH5c (E2), and BRCA1/BARD1 (E3) (lane2). Phosphorylated topo I was also incubated with E1 and UbcH5c (E2) only as control (lane 1). Reactions were carried out in ubiquitination buffer at 37° C. for 30 min. The reaction products were analyzed by immunoblot analysis with anti-ubiquitin. […] Immunoprecipitates were analyzed by immunoblot analysis with anti-ubiquitin. […] Control and treated cells were harvested and lysed. Cell lysates were analyzed by immunoblot analysis with anti-topo I (upper panel) and anti-β-actin (lower panel).
(§2) Cells were harvested after designated time and lysed. The cell lysates were analyzed by immunoblot analysis with anti-topo I (upper panel) and anti-β-actin for equal protein loading (lower panel). An infrared secondary antibody was used and a LICOR system was used to visualize the florescence. […] Immunoprecipitates were analyzed by immunoblot analysis with anti-Pan ubiquitin. […] The cell number was counted after 12 hours using a Celigo system. The cells were treated with 10 and 25 nM SN-38 for 72 hours. The cells were counted again using the Celigo system and growth inhibition was determined using a formula described in the materials and methods section.
(§3) Control and treated cells were harvested and lysed. Cell lysates were analyzed by immunoblot analysis with anti-topo I (upper panel) and anti-β-actin (lower panel). […] Immunoprecipitates were analyzed by immunoblot analysis with anti-ubiquitin.
(§4) To further validate the findings in cells the inventors used BRCA1 E3 ligase deficient HCC1937 cells. The cells are sensitive to DNA-damaging agents and have impaired BRCA1 E3 ligase function. The inventors have used HCC1937 cells and stably expressed BRCA1 (HCC1937-BRCA1) to restore E3 ligase function. Both, HCC1937 and HCC1937-BRCA1 cells were treated with CPT for 60 minutes and drug free for 30 minutes in the presence of MG132. Control and CPT treated cells were lysed and subjected to immunoprecipitation with anti-topoI. The immunoprecipitates were analyzed by immunoblot analysis with anti-ubiquitin. […] Topo I is degraded in the response to CPT by ubiquitin proteosomal pathways, and the rate of degradation at least in part determines anti neoplastic activity of the drug. To determine the correlation between topo I degradation and CPT efficacy in HCC1937 and HCC1937-BRCA cells, were treated with […] and topo I degradation (FIG. 2C) and cell growth inhibition assays were performed (FIG. 2D).
(§5) To understand the topo I ubiquitination and CPT response, based on the inventors previous early screen, the inventors selected four triple negative breast cancer cell lines with differential rate of UPP mediated topo I degradation. […] To determine the level of CPT induced ubiquitination, control and treated cells were lysed and cell lysates were subjected to immunoprecipitation with anti-topoI. The immunoprecipitates were analyzed by immunoblot analysis with anti-ubiquitin. […] To understand the possible correlation between ubiquitination dependent topo I degradation and CPT response, cells were treated with different concentration of SN-38 and analyzed for percent growth inhibition. […] The highest percent of growth inhibition was detected in BT20 (FIG. 3C). Taken together, rate of topo I degradation by UPP determines the drug sensitivity in triple negative breast cancer cells.

HCC1937-BRCA1 cells = assay: percent cell growth inhibition after 72 hours (Celigo); assay type: cell-based
Procedure: as §1, §3, §4

HCC1937 cells = assay: as above; assay type: cell-based
Procedure: as §1, §3, §4

[2] = system: biosynthesis of nucleic acids; details: cited from earlier work
Walker 256 tumor = details: experimentally transplanted Walker 256 tumor in rats; cited from earlier work
topo I [3] = assay: topo I ubiquitination in cells (anti-topoI immunoprecipitation, anti-ubiquitin immunoblot); assay type: cell-based
Procedure: as §1, §2, §3, §4, §5

HIV-1 = details: acute and chronic infections, in vitro; cited from earlier work
BT549 cells = assay: TNBC cell growth inhibition, 72 hours (Celigo); assay type: cell-based
Procedure: as §2, §5

SUM52 cells = assay: TNBC cell growth inhibition, 72 hours (Celigo); assay type: cell-based; details: 10 and 25 nM
Procedure: as §2, §5

BT20 cells = assay: TNBC cell growth inhibition, 72 hours (Celigo); assay type: cell-based
Procedure: as §2, §5

MDAMB231 cells = assay: TNBC cell growth inhibition, 72 hours (Celigo); assay type: cell-based
Procedure: as §2, with “The cells were treated with 10 and 25 nM SN-38 for 72 hours.” left out
as §5, with “Taken together, rate of topo I degradation by UPP determines the drug sensitivity in triple negative breast cancer cells.” left out

BRCA1-BRCT domain = biological target: T1, BRCA1-BRCT domain (Homo sapiens, UniProt P38398); assay: fluorescence polarization of Topo I phosphopeptide with GST-BRCT; assay type: binding; details: peptide labeled with Alexa Fluor 532, final dilution 1:1000 or 1:500, varying GST-BRCT concentrations
T1 construct: made in house; host or cells: E. coli Rosetta (DE3) pLysS (Novagen)
T1 sequence (P38398 1650-1863): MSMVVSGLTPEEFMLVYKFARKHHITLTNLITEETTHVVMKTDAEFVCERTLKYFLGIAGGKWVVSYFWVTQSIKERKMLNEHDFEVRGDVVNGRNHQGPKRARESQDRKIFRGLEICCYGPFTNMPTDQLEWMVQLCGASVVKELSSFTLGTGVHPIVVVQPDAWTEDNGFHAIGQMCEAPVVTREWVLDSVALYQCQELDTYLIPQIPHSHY
Procedure: Phosphopeptide labeled with Alexa Fluor 532 was incubated at a final dilution of either 1:1000 or 1:500 with varying concentrations of GST-BRCT or buffer alone. Polarization of the light emitted by the labeled peptide was detected on a Tecan Infinite M1000 pro and is plotted as a function of protein concentration.
An exemplary assay to identify a mutation in the BRCT domain which decreases the binding affinity of the BRCT domain for the phospho-ser10-topo I polypeptide was performed as follows (see FIG. 8): Topo I phosphopeptide NDpSQIEADFRLNDC (SEQ ID NO: 4) was conjugated to Alexa Fluor 532 (Invitrogen) via maleimide reaction with the C-terminal cysteine, as per manufacturer's protocol. Labeled peptide was separated from the reaction mixture by RP-HPLC using C-18 media and eluted with 30% acetonitrile. The partially purified peptide was lyophilized and resuspended in TBS with 1 mM DTT. GST-BRCT was expressed in Rosetta (DE3) pLysS (Novagen) and purified by standard methods. The purified protein was eluted from the GS beads and dialyzed against TBS containing 1 mM DTT and 5% glycerol prior to storage at −80°. […] 20 μl from each dilution was then transferred to each of 4 wells in a 384-well black plate, and FP was read on a Tecan Infinite M1000 pro and plotted as mP as a function of protein concentration.

Molecule: CC[C@@]1(O)C(=O)OCc2c1cc1n(c2=O)Cc2cc3ccccc3nc2-1 [CPT, camptothecin]
- anti-tumor activity (leukemia L-1210): potent anti-tumor activity
- topo I degradation (topo I [1]; BT20 cells, in 2 hours): not appreciably degraded
- topo I degradation (topo I [1]; BT549 cells, in 2 hours): not appreciably degraded
- topo I degradation (topo I [1]; HCC1937-BRCA1 cells): degrades topo I
- topo I degradation (topo I [1]; HCC1937 cells): fails to ubiquitinate and degrade topo I
- time in which topo I was degraded (topo I [1]; MDAMB231 cells): ≤ 2 h
- time in which topo I was degraded (topo I [1]; SUM52 cells): ≤ 2 h
- cell growth inhibition (sensitivity to the drug) (HCC1937-BRCA1 cells): resistant
- cell growth inhibition (sensitivity to the drug) (HCC1937 cells): highly sensitive
- inhibitory activity toward the biosynthesis of nucleic acids [2]: strong inhibitory activity
- anti-tumor activity (Walker 256 tumor): potent anti-tumor activity
- topo I ubiquitination (topo I [3]; BT20 cells): no ubiquitination
- topo I ubiquitination (topo I [3]; BT549 cells): no ubiquitination
- topo I ubiquitination (topo I [3]; HCC1937 cells (BRCA1 E3 ligase deficient), treated 60 minutes, drug free 30 minutes, MG132): No ubiquitination; also recorded: fail to ubiquitinate topo I; also recorded: fails to ubiquitinate and degrade topo I
- topo I ubiquitination (topo I [3]; MDAMB231 cells): ubiquitinated
- topo I ubiquitination (topo I [3]; SUM52 cells): ubiquitinated

Molecule: CC[C@@]1(O)C(=O)OCc2c1cc1n(c2=O)Cc2cc3c(CN(C)C)c(O)ccc3nc2-1 [Topotecan]
- inhibition of HIV-1 infection (HIV-1): inhibit both acute and chronic HIV-1 infections

Molecule: CCc1c2c(nc3ccc(O)cc13)-c1cc3c(c(=O)n1C2)COC(=O)[C@]3(O)CC [SN-38]
- topo I degradation (topo I [1]; HCC1937-BRCA1 cells): degrade topo I
- topo I degradation (topo I [1]; HCC1937 cells): do not degrade topo I
- sensitivity to the drug (growth inhibition) (BT549 cells): very sensitive
- percent growth inhibition (compared among four TNBC cell lines) (SUM52 cells): least
- percent growth inhibition (compared among four TNBC cell lines) (BT20 cells; BT20 cells): highest
- sensitivity to the drug (growth inhibition) (BT20 cells; BT20 cells (printed BT2020)): very sensitive
- cell growth inhibition (sensitivity to the drug) (HCC1937-BRCA1 cells): sensitive
- cell growth inhibition (sensitivity to the drug) (HCC1937 cells): sensitive
- cell growth under drug (MDAMB231 cells; 50 nM): cells were growing
- sensitivity to the drug (growth inhibition) (MDAMB231 cells; 72 hours): remained resistant
- topo I ubiquitination (topo I [3]; HCC1937-BRCA1 cells (wild type BRCA1 restored), treated 60 minutes, drug free 30 minutes, MG132): pronounced topo I ubiquitination

Molecule: NDpSQIEADFRLNDC (SEQ ID NO: 4) (ND[pS]QIEADFRLNDC; listed as Homo sapiens) [Topo I phosphopeptide, topo I phosphopeptide with phosphorylated S10]
- binding to GST-BRCT (fluorescence polarization) (BRCA1-BRCT domain): direct interaction
- binding to GST-BRCT (fluorescence polarization) (BRCA1-BRCT domain; listed as topo I phosphopeptide): binds directly
